Series [1] addresses T1, human norepinephrine (NE) transporter (NET) (Homo sapiens, UniProt P23975).
T1 construct: host or cells: CHO cells, cell membrane homogenates
Briefly: Norepinephrine transporter binding assay ([3H]nisoxetine, CEREP). The protocol: (§1) Transporter Binding and Cellular Uptake. All described monoamine transporter binding studies as well as cellular uptake assays were performed in duplicate by CEREP (Celle l'Evescault, France) and are described below. Further details of all assays performed may be accessed at the CEREP web site (world-wide-web at cerep.com). Cellular-based assays were conducted to provide complementary in vitro functional measures to complement the standard transporter assays as well as to provide direct comparisons of the homologs IPH with MPH with regard to DA, NE, and 5-HT uptake in synaptosomal preparations.
Norepinephrine Transporter Binding Assay. Evaluation of the affinity of the two compounds for the human norepinephrine (NE) transporter (NET) in transfected CHO cells was determined in a radioligand assay analogous to the procedures described for the DAT assay. Cell membrane homogenates were incubated for 90 min at 4° C. with 1 nM [^3H]nisoxetine in the absence or presence of each test compound in a standard buffer solution. Nonspecific binding was determined in the presence of 1 μM of desipramine. Following incubation, the samples were filtered rapidly under vacuum and rinsed several times with a buffer solution. The filters were then dried and radioactivity counts were obtained. The results are expressed as percent inhibition of the control radioligand specific binding. The standard reference compound was the tricyclic antidepressant (TCA) protriptyline, which was tested in each experiment at several concentrations to generate a competition curve from which its IC50 was calculated.

Series [2] concerns NE uptake, synaptosomes prepared from the rat hypothalamus. Put plainly: Norepinephrine uptake into synaptosomes. Type of series: cell-based. The protocol:
as §1

The target in series [3] is T2, human carboxylesterase 1 (hCES1) (Homo sapiens, UniProt P23141).
T2 construct: expressed in transfected cells
T2 sequence (P23141 18-567): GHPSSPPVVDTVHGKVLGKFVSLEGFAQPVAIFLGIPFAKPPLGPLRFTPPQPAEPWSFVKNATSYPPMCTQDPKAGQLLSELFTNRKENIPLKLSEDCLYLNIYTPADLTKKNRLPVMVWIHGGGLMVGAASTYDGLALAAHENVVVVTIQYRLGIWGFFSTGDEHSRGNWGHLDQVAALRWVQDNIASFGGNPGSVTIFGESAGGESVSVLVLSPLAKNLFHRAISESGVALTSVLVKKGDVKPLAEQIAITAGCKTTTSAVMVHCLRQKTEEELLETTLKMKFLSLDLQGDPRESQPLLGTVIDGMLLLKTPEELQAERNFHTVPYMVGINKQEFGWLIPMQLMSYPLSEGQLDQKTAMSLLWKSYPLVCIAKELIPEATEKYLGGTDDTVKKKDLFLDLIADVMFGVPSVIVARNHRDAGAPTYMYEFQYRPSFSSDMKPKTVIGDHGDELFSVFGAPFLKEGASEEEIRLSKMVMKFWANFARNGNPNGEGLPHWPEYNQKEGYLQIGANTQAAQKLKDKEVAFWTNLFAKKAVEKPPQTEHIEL
Put plainly: Hydrolysis to ritalinic acid by recombinant hCES1 (s9 fraction of transfected cells). The series is classed as in vitro ADME. The following applies: 1 mM substrate, 60 min. The procedure:
FIG. 2—Hydrolysis of methylphenidate (MPH) and isopropylphenidate (IPH) by recombinant human CES1, HLM, HIM. After incubation with CES 1 transfected human cells, HLM, and HIM at 37° C. for 60 min, the metabolite RA produced via hydrolysis of MPH and IPH was determined by HPLC. Data are presented as mean±SEM of 3 to 6 independent experiments.
Determination of Relative Hydrolytic Rates of MPH and IPH. The assessment of relative rates of hydrolysis of the two ester compounds utilized both cell culture and human liver microsomes (HLM) and human intestinal microsomes (HIM). The human carboxylesterase 1 (hCES1) s9 fraction was prepared utilizing a novel method developed in the inventors' laboratory previously (Zhu et al., 2008). Hydrolysis of IPH and MPH by hCES1, HLM, and human intestinal microsomes was assessed by incubating the substrates with the respective enzymes and measuring the formation of the major metabolite RA formed via ester hydrolysis. Briefly, 50 μl of freshly prepared substrates (IPH and MPH) was mixed with 50 μl of enzymes in 1.5 ml Eppendorf tubes yielding a total volume of 100 μl. […] Concentrations of the primary hydrolytic product of the two compounds, RA were determined utilizing a validated HPLC method previously described.

Series [4] concerns the target T3, human dopamine (DA) transporter (DAT) (Homo sapiens, UniProt Q01959).
T3 construct: host or cells: CHO cells, cell membrane homogenates
Briefly: Dopamine transporter binding assay ([3H]GBR 12935, CEREP). The following applies: HCl salts. The protocol:
as §1, with “preparations. […]” for “preparations.”
Dopamine Transporter Binding Assay. Evaluation of the affinity of both compounds for the human dopamine (DA) transporter (DAT) in transfected Chinese Hamster Ovary (CHO) cells was determined in a validated radioligand binding assay. […] Nonspecific binding was determined in the presence of 10 μM N-[1-(Benzo[b]thien-2-yl-cyclohexyl)] piperidine (BTCP). […] The filters were then dried and measured for radioactivity with a scintillation counter (TopCount, Packard) using a liquid scintillation cocktail (Microscint 0, Packard). The results of DAT binding experiments as well as the other transporter assays described in the following sections were expressed as a percent inhibition of the control radioligand specific binding. […]

From patent publication US20120245201A1, “Isopropylphenidate for Treatment of Attention-Deficit/Hyperactivity Disorder and Fatigue-Related Disorders and Conditions” (priority 2009, published 2012) come the findings set out here.

T1 sequence (P23975 whole entry): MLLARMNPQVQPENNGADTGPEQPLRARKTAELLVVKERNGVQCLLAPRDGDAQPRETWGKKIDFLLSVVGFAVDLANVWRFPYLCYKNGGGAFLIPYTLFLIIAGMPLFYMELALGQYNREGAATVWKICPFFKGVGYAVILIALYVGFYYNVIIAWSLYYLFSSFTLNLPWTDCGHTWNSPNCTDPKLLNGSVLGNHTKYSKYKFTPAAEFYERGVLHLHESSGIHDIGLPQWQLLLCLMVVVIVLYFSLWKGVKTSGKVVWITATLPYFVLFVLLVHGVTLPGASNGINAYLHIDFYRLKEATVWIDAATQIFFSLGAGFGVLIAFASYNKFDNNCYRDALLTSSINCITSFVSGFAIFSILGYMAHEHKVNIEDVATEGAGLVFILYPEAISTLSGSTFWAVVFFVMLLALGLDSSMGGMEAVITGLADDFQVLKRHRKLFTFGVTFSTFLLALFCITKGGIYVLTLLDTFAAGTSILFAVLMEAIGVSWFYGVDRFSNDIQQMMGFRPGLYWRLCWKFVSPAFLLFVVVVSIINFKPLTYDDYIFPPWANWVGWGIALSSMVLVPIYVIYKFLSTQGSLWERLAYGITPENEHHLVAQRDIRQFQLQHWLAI
T3 sequence (Q01959 whole entry): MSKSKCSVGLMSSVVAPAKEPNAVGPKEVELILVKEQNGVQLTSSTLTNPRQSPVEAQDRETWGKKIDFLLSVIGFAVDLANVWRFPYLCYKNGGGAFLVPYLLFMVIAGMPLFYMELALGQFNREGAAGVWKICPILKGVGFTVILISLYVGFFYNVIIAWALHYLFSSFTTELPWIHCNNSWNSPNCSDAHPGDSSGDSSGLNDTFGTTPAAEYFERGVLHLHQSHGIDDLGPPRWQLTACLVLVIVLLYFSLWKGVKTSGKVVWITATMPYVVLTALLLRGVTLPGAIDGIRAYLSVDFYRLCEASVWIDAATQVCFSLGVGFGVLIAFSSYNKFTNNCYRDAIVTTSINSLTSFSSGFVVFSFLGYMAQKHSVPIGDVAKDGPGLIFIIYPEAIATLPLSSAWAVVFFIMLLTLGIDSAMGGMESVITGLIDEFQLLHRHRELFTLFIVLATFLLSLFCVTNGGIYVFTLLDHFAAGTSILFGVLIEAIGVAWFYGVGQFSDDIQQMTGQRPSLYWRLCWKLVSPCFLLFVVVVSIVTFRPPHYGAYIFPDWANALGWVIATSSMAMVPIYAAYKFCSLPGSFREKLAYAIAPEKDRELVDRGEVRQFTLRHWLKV

With `COC(=O)C(c1ccccc1)C1CCCCN1` (racemic) [MPH, dl-threo-methylphenidate, reference compound], the inhibition at 10 µM worked out at 88% in series [1] (ligand [3H]nisoxetine, transfected CHO cells, HCl salts, read-out: % inhibition of control specific binding, NET (h)); 117% in series [2] (read-out: % inhibition of control specific binding, [3H]NE incorporation into synaptosomes); 101% in series [4] (ligand [3H]GBR-12935, transfected CHO cells, read-out: % inhibition of control specific binding, DAT (h)). The “catalytic efficiency of hCES1-mediated hydrolysis, MPH relative to IPH” value in series [3] (0.5 mg/ml hCES1, 37° C., RA formation by HPLC) is “approximately 10 fold”.
With `CC(C)OC(=O)C(c1ccccc1)C1CCCCN1` (racemic) [IPH, dl-threo-α-phenyl-2-piperidineacetic acid isopropyl ester], the “NET affinity of IPH relative to MPH” value in series [1] (10 μM, inhibition of specific control binding) is given as “one-third”. Moreover, the “% inhibition of control specific binding, NET (h)” value in series [1] (10 μM, ligand [3H]nisoxetine, transfected CHO cells, HCl salts) came to 27%. The “% inhibition of control specific binding; [3H]NE incorporation into synaptosomes” value in series [2] (10 μM) amounted to 62%. Also, the “substrate quality for hCES1 hydrolysis” value in series [3] (37° C.) was “poor substrate of hCES1”. The “% inhibition of control specific binding, DAT (h)” value in series [4] (10 μM, ligand [3H]GBR-12935, transfected CHO cells) came out at 97%.
